Laboratory results taken from patent publication US20040213757A1, “Water soluble wortmannin derivatives” (Wyeth Holdings Corporation, priority 2003, published 2004).
≈ marks a conversion by molar mass, not a printed value.

Tests used:
[1] = tested on: U87MG glioblastoma; conditions: for Tumor Volume t/c, day 0 / Tumor Volume, mean, day 0 / Tumor Volume t/c, day 4 / Tumor Volume, mean, day 4 / Tumor Volume t/c, day 7 / Tumor Volume, mean, day 7 / Tumor Volume t/c, day 11 / Tumor Volume, mean, day 11 / Tumor Volume t/c, day 14 / Tumor Volume, mean, day 14 / Tumor Volume t/c, day 17 / Tumor Volume, mean, day 17: 0.7 mg/kg IV, d 0-4
Method: A tumor cell line for brain tumor, PTEN (−/−) U87MG Glioma was implanted in mice. The mice were dosed IV on days 0-4.
In this experiment, U87MG glioma growing as subcutaneous xenografts in nude mice were staged on day 0, and dosed on days 0-4 at 0.15, 0.5, 1.5, 5 and 15 mg/kg/dose of a wortmannin derivative of this invention.
In the U87MG glioma study shown in FIG. 3, a wortmannin derivative of this invention was dosed IV on days 0-4. Paclitaxel was dosed IP on days 0 and 7. The MTD of paclitaxel is 60 mg/kg/dose following a weekly dosing schedule. Mice were treated with a wortmannin derivative of this invention at 1 mg/kg/dose, paclitaxel at 30 and 60 mg/kg/dose, or treated in combination with a wortmannin derivative of this invention at 1 mg/kg/dose and paclitaxel at 30 mg/kg/dose.
A wortmannin derivative at 1 mg/kg/dose and Peg-rapa at 0.1 mg/kg/dose were dosed IV either alone or in combination on days 0-4.
Balb/c nu/nu (athymic) mice were housed in accordance with Association for Accreditation of Laboratory Animal Care (AALAACC) standards for at least one week prior to their experimental usage. The animals were housed in microisolator cages and handled only in a laminar flow hood. All food and water was autoclaved. Mice were inoculated on the left flank with a volume of 200 μL using a 25-26 gauge sterile needle and syringe with a suspension of cells. The cells were resuspended in full growth media and delivered at 10 million cells per mouse. When the resulting tumors reached the appropriate size for staging, the mice were regrouped to produce equivalent sized groups with n=10. Once staged, the mice were dosed 0.2 cc iv with the water-soluble drug-polymer conjugate II and water-soluble drug-polymer conjugate IV resuspended in sterile, distilled water. Wortmannin and other non-pegylated water-soluble drug-polymer conjugate were prepared 10 mg/ml in Dimethyl sulfoxide (DMSO) and diluted with Phosphate Buffered Saline (PBS) right before injecting into the mouse. Treatment was administered as a daily×5 dosing schedule repeated every 2 weeks until the tumors reach 10% of the animal's weight. The growth of the solid tumor was monitored twice a week for the duration of the experiment. Tumor size was quantitated using sliding vernier calipers and the mass was calculated using the formula […]. Conversion from cubic mm to mg was made assuming unit density. Tumors were not allowed to grow larger than 15% of the mouse's weight, at which point the mouse was euthanized.

[2] = tested on: H-157; assay: Thymidine incorporation proliferation assay, H-157; type: cell-based, human; conditions: three days of treatment
Method: (§1) A549 (human non-small cell lung cancer) and H-157 cell lines were purchased from American Type Culture Collection (ATCC) (Rockville, Md.). Cells were cultured in RPMI Medium 1640 containing 10% fetal bovine serum (FBS) in a 37° C. incubator containing 5% CO2. All cell culture reagents were purchased from Gibco-BRL (Grand Island, N.Y.). Cells were plated in 96-well culture plates at about 3000 cells per well. One day following plating, water-soluble drug-polymer conjugates or the vehicle controls were added to cells. Proliferation assays were performed three days post initiation of treatment. For the non-radioactive cell proliferation assay, viable cell densities were determined by measuring metabolic conversion (by viable cells) of the dye MTS tatrazolium dye, a cell proliferation assay known by one of skill in the art (MTS assay), a previously established cell proliferation assay. The assay was performed using assay kit purchased from Promega Corp. (Madison, Wis.). The assay plates were incubated for 1-2 hours and the results were read in a 96-well format plate reader by measuring absorbance at 490 nm. For the thymidine incorporation assay, cells were labeled with [methyl-^3H]-thymidine (PerkinElmer Life Sciences, Boston, Mass.) for 5 hours. Cells were then harvested onto glass-fiber filter membranes and counted in a Wallac 1205 Betaplate liquid scintillation counter. Effect of each drug treatment was calculated as a percentage of control cell growth obtained from vehicle-treated cells grown in the same plate.

[3] = tested on: A549 (human non-small cell lung cancer); assay: Thymidine incorporation proliferation assay, A549; type: cell-based; conditions: three days of treatment
Method: as §1

[4] = tested on: H-157; assay: MTS cell proliferation assay, H-157; type: cell-based, human; conditions: three days of treatment
Method: as §1

[5] = tested on: A549 (human non-small cell lung cancer); assay: MTS cell proliferation assay, A549; type: cell-based; conditions: three days of treatment
Method: as §1

[6] = tested on: PI3K; conditions: cited from earlier work
[7] = tested on: C3H mammary model; conditions: cited from earlier work

For `CC(=O)O[C@H]1C(=O)[C@@]2(C)[C@H]([C@H](OC(=O)c3ccccc3)[C@]3(O)C[C@H](OC(=O)[C@H](O)[C@@H](NC(=O)c4ccccc4)c4ccccc4)C(C)=C1C3(C)C)[C@]1(OC(C)=O)CO[C@@H]1C[C@@H]2O` [paclitaxel, reference compound], which MTD of paclitaxel ([1]; mouse, in vivo, ip) is on record?
Its MTD of paclitaxel is 60 mg/kg/dose.

With `COC[C@H]1OC(=O)c2coc3c2[C@@]1(C)C1=C(C3=O)[C@@H]2CCC(=O)[C@@]2(C)C[C@H]1OC(C)=O` [Wortmannin] as the molecule, how does the IC50 ([2]; Homo sapiens, NCI-H157, 72 h) read?
Its IC50 is 3.2 µg/mL (≈ 7.47 µM).

And the IC50 ([3]; Homo sapiens, 72 h)?
Its IC50 is 2.5 µg/mL (≈ 5.84 µM).

And the IC50 ([4]; Homo sapiens, NCI-H157, 72 h)?
Its IC50 is 10 µg/mL (≈ 23.3 µM).

What about the IC50 ([5]; Homo sapiens, 72 h) of the same molecule?
The IC50 was 9 µg/mL (≈ 21 µM).

With `COCC1OC(=O)c2coc3c2C1(C)C1=C(C3=O)C2CCC(O)C2(C)CC1OC(C)=O` (stereo not drawn) [17β-Hydroxywortmannin] as the molecule, how does the “increase in activity relative to wortmannin” value ([6]; PI3K) read?
The value was 10 fold.

What about the IC50 [6] of the same molecule?
Its IC50 is 0.5 nM.

What about the “antitumor activity in the C3H mammary model” value ([7]; dose of 0.5 mg/kg) of the same molecule?
Its value is “no inhibition”.

And the “toxicity in the C3H mammary model” value ([7]; dose of 1.0 mg/kg)?
Its value is “toxicity”.

With “Conjugate (III) of M-PEG-SH 5000 and 17-dihydro-17-(1-iodoacetyl)-wortmannin [Water-soluble drug-polymer conjugate III]” as the molecule, how does the “Tumor Volume t/c, day 0” value [1] read?
Its value is 1.01.

What about the “Tumor Volume, mean, day 0” value [1] of the same molecule?
The value was 137.4 mm^3.

What about the “Tumor Volume t/c, day 4” value [1] of the same molecule?
Its value is 0.51.

What about the “Tumor Volume, mean, day 4” value [1] of the same molecule?
Its value is 144.0 mm^3.

What about the “Tumor Volume t/c, day 7” value [1] of the same molecule?
The value was 0.37.

What about the “Tumor Volume, mean, day 7” value [1] of the same molecule?
Its value is 120.2 mm^3.

And the “Tumor Volume t/c, day 11” value [1]?
Its value is 0.51.

What about the “Tumor Volume, mean, day 11” value [1] of the same molecule?
Its value is 300.2 mm^3.

What about the “Tumor Volume t/c, day 14” value [1] of the same molecule?
The value was 0.50.

And the “Tumor Volume, mean, day 14” value [1]?
Its value is 547.0 mm^3.

What about the “Tumor Volume t/c, day 17” value [1] of the same molecule?
The value was 0.44.

And the “Tumor Volume, mean, day 17” value [1]?
Its value is 926.8 mm^3.

And the “Thymidine Assay IC50, H-157” value [2]?
The value was >3 µg/mL.

And the “Thymidine Assay IC50, A549” value [3]?
The value was >3 µg/mL.

And the “MTS Assay IC50, H-157” value [4]?
Its value is >3 µg/mL.

And the “MTS Assay IC50, A549” value [5]?
Its value is >3 µg/mL.

What does the source list for “Conjugate (IV) of M-PEG-SH 5000 and 11-desacetyl-11-(1-iodoacetyl)-wortmannin [Water-soluble drug-polymer conjugate IV]”?
Tumor Volume t/c, day 0 [1]: 0.97; Tumor Volume, mean, day 0 [1]: 131.0 mm^3; Tumor Volume t/c, day 4 [1]: 0.58; Tumor Volume, mean, day 4 [1]: 165.0 mm^3; Tumor Volume t/c, day 7 [1]: 0.46; Tumor Volume, mean, day 7 [1]: 147.9 mm^3; Tumor Volume t/c, day 11 [1]: 0.60; Tumor Volume, mean, day 11 [1]: 349.0 mm^3; Tumor Volume t/c, day 14 [1]: 0.64; Tumor Volume, mean, day 14 [1]: 707.4 mm^3; Tumor Volume t/c, day 17 [1]: 0.69; Tumor Volume, mean, day 17 [1]: 1454.9 mm^3; Thymidine Assay IC50, H-157 [2]: >3 µg/mL; Thymidine Assay IC50, A549 [3]: >3 µg/mL; MTS Assay IC50, H-157 [4]: >3 µg/mL; MTS Assay IC50, A549 [5]: >3 µg/mL
